For one data set, the system named is H2O2 production by Cu. Description: Hydrogen peroxide detection by the Amplex Red/HRP assay (Aβ, Cu(Gly)2, ascorbic acid). It is filed as biochemical. As to the method: FIG. 6. Hydrogen peroxide detection by the Amplex Red/HRP assay for samples containing various combinations of 200 nm Aβ, 200 nm Cu(Gly)2, 10 μM ascorbic acid, 2-200 μM QBP, 50-400 nm 8HQ, in a total volume of 50 μL buffer (50 mM hepes, 150 mM NaCl). Samples were incubated at 37° C. for approximately 1 h before 50 μL of Amplex Red/HRP reagent was added. Fluorescence readings were taken with λex=485 and λem=590 nm.
(§1) The complex [Cu(8HQ)2] has a characteristic absorbance band at 375 nm, which is clearly visible in samples that contain Aβ, Cu^2+ and 8HQ. […] Mass spectral analysis of the sample gives m/z of 352, further confirming formation of [Cu(8HQ)2] in these complex mixtures. The previous experiment contained a relatively high concentration (1 mM) of H2O2 that was added in a single bolus. Several groups have shown that combinations of Aβ, Cu and reductants produce significant amounts of H2O2 from O2. Therefore, to investigate whether these conditions of more biologically relevant H2O2 production are sufficient for activating QPB, samples of Aβ, Cu^2+ (provided as Cu(Gly)2), ascorbic acid, and either 8HQ or QBP were monitored for H2O2 production with the Amplex Red assay. […] Samples that contain Cu and ascorbate (with or without Aβ) provide just over 300 nM detectable H2O2. […] When 8HQ is present at a 2:1 ratio to Cu, the amount of detectable H2O2 diminishes to one third that detected in the presence of Aβ. […] When QBP is added to the reaction mixture in place of 8HQ, a similar result is obtained.

In data set [1] the test system is Aβ. The data set can be described thus: Turbidity (light scattering) assay of metal-induced Aβ aggregation. It is filed as biochemical. As to the method:
FIG. 4. […] Samples, which contain various combinations of 10 μM Aβ, 10 μM Cu(Gly)2, 10 μM ZnCl2, 10 or 20 μM 8HQ, 20 or 100 μM QBA, 20 or 100 μM QBP, as indicated on the graph, were incubated in a 96 well plate at 37° C. Total volume per well was made up to 200 μL with Hepes buffer. Abs readings were taken 64 min after mixing (diagonal hashed bars). After one hour incubation, 1 mM H2O2 was added to each well and Abs readings were taken after 30 min (horizontal striped bars). Error bars represent the variability of triplicate measurements.

For data set [2] the following is noted: preliminary investigations. The source says:
Quinoline boronic acid (QBA) is commercially available. […] In order to prevent premature metal binding, it was therefore necessary to form a boronic ester.

A short description of data set [3]: Rate of conversion of QBP to 8HQ by H2O2 (pseudo first-order, spectrophotometric). It is filed as physicochemical. The settings on record: 100 μM QBP, PBS pH 7.4, 1-10 mM H2O2. The protocol: FIG. 3. Plot of kobs at varying concentrations of H2O2 to obtain the rate constant k for the conversion of QBP to HQ. QBP was initially dissolved in a minimal amount of methanol and then diluted into PBS buffer, pH 7.4, to a final concentration of 100 μM. Spectra were taken immediately after addition of 1-10 mM H2O2; at least 40 spectra were collected before 50% conversion of prochelator to chelator. The change in absorbance at 273 nm was used to follow the reaction. The negative slope of the linear fit of ln(1−(A−Ao/Ao)) vs time gives the observed rate constant kobs. The slope of the line through data kobs vs [H2O2] provides k (M^−1 s^−1).
In order to determine the rate of conversion of QBP to 8HQ by H2O2 (Eq. 2), reactions were monitored spectrophotometrically under pseudo first-order conditions of excess H2O2. The observed rate constants (kobs) were plotted against peroxide concentration (FIG. 3) to give a rate constant k of 0.13 M^−1 s^−1. rate=k[QBP][H2O2] Eq. 2

A short description of data set [4]: UV-vis spectra of oxidation and Cu2+ binding by QBP. The conditions noted are these: 100 μM QBP. The protocol:
FIG. 2. Oxidation and Cu^2+ binding by QBP. 100 μM QBP and 50 μM Cu(Gly)2 were incubated in PBS buffer pH 7.4. After one hour, 4 mM H2O2 was added. After 60 min, oxidation and Cu binding were complete. Resulting spectrum is nearly identical to 8HQ-Cu spectra.
With the phenol of 8HQ masked by the pinanediol boronic ester, the QBP prochelator should have little to no affinity for metal ions.

Data set [5] in a line: Stability of QBP in aqueous solution (hydrolysis to QBA), monitored by UV-Vis and mass spectrometry. It is filed as physicochemical.
For data set [6], the system named is Aβ. The data set can be described thus: UV-vis analysis of H2O2-treated Aβ samples. It is filed as biochemical. The settings on record: samples containing Aβ/Cu/QBP/H2O2.
Source text: FIG. 5. UV-vis analysis of H2O2-treated Aβ samples. The samples are the same ones as in FIG. 4.
Further confirmation that Cu(8HQ)2 is, indeed, generated in the reaction of Aβ/Cu/QBP/H2O2 described in FIG. 4 comes from the UV-vis spectrum of the reaction mixture, shown in FIG. 5.
as §1

As to `Oc1cccc2cccnc12` [8HQ, 8-hydroxyquinoline, reference compound], in the data set on H2O2 production by Cu (8HQ at a 2:1 ratio to Cu), the “amount of detectable H2O2 relative to that detected in the presence of Aβ” value is given as “one third”. Further, the H2O2 production entry with H2O2 production by Cu (8HQ at a quarter of an equiv of Cu, 200 nM Cu(Gly)2, 200 nM Aβ, 10 μM ascorbic acid, 1-h incubation, pH 7.4) is on record as “inhibits H2O2 production”. Also, the “copper-induced Aβ aggregation” value in the data set on Aβ [1] (2 equiv of 8HQ, 10 μM Aβ, 10 μM Cu(Gly)2, 37° C.) is “completely inhibits”. For the same compound, in the data set with Aβ [1] (2 equiv of 8HQ, 10 μM Aβ, 10 μM ZnCl2, 37° C.), the “zinc-induced Aβ aggregation” value is “significantly reduces”.
In the case of `OBO.c1ccc2ncccc2c1` [QBA, Quinoline boronic acid], the “interaction with metal ions” value in data set [2] is “interacts directly with metal ions”.
For the compound `CC1(C)C2CC3OB(c4cccc5cccnc45)OC3(C)C1C2` (stereo not shown) [QBP], the “rate constant k for conversion of QBP to 8HQ by H2O2” value in data set [3] worked out at 0.13 M⁻¹ s⁻¹. Further, in data set [4] (50 μM Cu(Gly)2, PBS pH 7.4, 4 mM H2O2), the “time after H2O2 addition at which oxidation and Cu binding were complete” value turned out to be 60 min. Further, the “spectrum after addition of H2O2” value in data set [4] (50 μM Cu(Gly)2, PBS pH 7.4, 4 mM H2O2 added) is “matches that of [Cu(8HQ)2]”. Moreover, the “interaction with Cu2+ in prochelator form (UV-vis spectral change)” value in data set [4] (50 μM Cu(Gly)2, PBS pH 7.4, one hour, no H2O2) was “does not interact with Cu^2+”. For the same compound, the “hydrolysis to QBA in aqueous solution” value in data set [5] (between pH 5-8, over the course of 10 h) is “no signs of hydrolysis”; in data set [5] (low and high pH values outside pH 5-8, mass spectrometry) it was “some hydrolysis to QBA was detected”. In addition, the “formation of [Cu(8HQ)2] (absorbance band at 375 nm)” value in the data set with Aβ [6] is “[Cu(8HQ)2] has, indeed, been generated”. Besides, in the data set on H2O2 production by Cu (100 μM QBP with Cu, ascorbate and Aβ), the “H2O2 detected relative to the concentration obtained in the absence of chelator” value is listed as “a third”. Moreover, the H2O2 detected result in the data set with H2O2 production by Cu (100 μM QBP with Cu, ascorbate and Aβ, 1-h incubation) is “about 100 nM”. The “turbidity of Aβ/Cu2+ samples after H2O2 addition” value in the data set with Aβ [1] (1 mM H2O2 added after one hour incubation, read 30 min later) was “significant decrease in turbidity”. The “metal-induced Aβ aggregation” value in the data set with Aβ [1] (20 or 100 μM QBP, no H2O2) is recorded as “does not interfere”.
